Assay [1] deals with voltage-gated Na+ channels. The experiment in a line: Sodium (Na+) channel analysis in rat DRG neurons using whole cell patch-clamp. The format is cell-based. On the procedure: Isolated DRG neurons were suspended in primary neuron basal media and placed on glass coverslips for incubation in humidified atmosphere of 5% CO2 at 37° C. Coverslip carrying cells was transferred to the bath of an inverted microscope (Zeiss), continuously perfused with oxygenated artificial cerebro-spinal fluid (ACSF) containing (in mM) 124 NaCl, 2.5 KCl, 2 CaCl2, 1 MgSO4, 25 NaHCO3, 1 NaH2PO4, and 10 glucose, at a rate of 2-3 ml/min. Recording of whole-cell membrane currents were made at room temperature. Recording pipette (4-6 MO) was filled with internal solution containing (in mM) 145 K-gluconate, 5 NaCl, 1 MgCl2, 0.2 EGTA, 10 HEPES, 2 Mg-ATP, 0.1 Na-GTP, and 10 phosphocreatine. To isolate Na^+ currents, DRG neurons were superfused with ACSF containing tetraethylammonium chloride (TEA) 5 mM, cesium chloride (CsCl) 100 μM and cadmium chloride (CdCl) 1 mM, to block potassium and calcium currents. OBM compounds were freshly dissolved in ASCF containing TEA, CsCl and CdCl, prior application via the bath.
For recording Na^+ currents, cells were held at −60 mV before applying a conditioning hyperpolarizing step (50 ms) to −90 mv to reactivate the voltage-gated Na^+ channels. The conditioning pulse was followed by depolarizing (150 ms) test pulses to 50 mV in 10 mV increments. Na^+ currents were recorded in absence, after 3 min in presence of the drugs and after a recovery time of 3 min.
In general terms: The patch-clamp technique gives a direct electrical read-out from membranes.

For assay [2], the system named is zebrafish embryos. The experiment in a line: Zebrafish response assay (embryonic touch response/swim behaviour, complete anaesthesia). The settings on record: Danio rerio, 1.5 h; complete anaesthesia (scale 1) in 50% of embryos, 90 min at 28° C., 54 hpf AB wild type embryos. Type of assay: in vivo. An excerpt: Briefly, the ZEA assay involved applying essential oils, fractions or individual compounds to developmentally staged zebrafish embryos followed by monitoring of embryonic touch response/swim behaviour and evaluation of the dose response relationship for each substance. Using a four point scale to describe the embryonic behaviours (Table 4), initial analysis focused on monitoring and recording these changes and evaluating the level of bioactivity. […] (optimal temperature for embryonic growth) in the diluted compound. • The four point scale (Table 4) was used to evaluate the touch response and swim behaviour for each embryo in all wells. • The effectiveness of the compound was based on its ability to generate complete anesthesia (scale: 1) in 50% of the embryos at a given concentration (EC50). • The EC50 values were calculated using GraphPad Prism® software to analyze the log (dose) response curves. The results are shown in Table 3, and in FIG. 3 as a dose response curve of zebrafish embryo assay, a percentage response versus percentage of compound present.

Assay [3] addresses T1, TRPV1 (Homo sapiens, UniProt Q8NER1).
T1 construct: expressed in transfected cells; host or cells: HEK-TRPV cells
Kind of assay: TRPV1 assay, calcium imaging. Type of assay: cell-based. The settings on record: Ca2+ imaging after 1 μM capsaicin, HEK-TRPV cells. How it is done: Briefly, cells were seeded into poly-L-lysine-coated, glass-bottom, 24-well plates (1×10^5 cells/well) and incubated overnight under standard culture conditions to achieve the desired confluency. Culture media was removed and cells were washed twice with HBS prior to incubation for 15 to 60 min at 37° C. with a labelling mixture comprised of Fura-2-AM and pluronic acid in HBS. Data collection occurred over an eight minute period and followed the same general sequence. Following loading, cells were stimulated by addition of 1 μM of capsaicin agonist for 2 min, after which a concentration series of the test sample (e.g. (0.5, 5, 10, 50 μg/ml) was added and imaging continued for an additional 5 min. Capsazepine (20 μM) served as a known reference antagonist, while cells that were mock-treated or received vehicle (e.g., DMSO) alone served as negative controls. For imaging, plates were placed on the stage of an inverted epifluorescence microscope (e.g., Axiovert 200, Zeiss) equipped with a CCD digital camera (e.g., Axiocam MRm, Zeiss). For each well of the plate, a sequence of image pairs (excitation at 340 nm and 380 nm) were collected to capture intracellular calcium flux. Image sequences were analyzed in ImageJ (NIH) and average pixel intensities calculated for six representative cells in each test condition to achieve mean fluorescence.

[4] abbreviates: Na+ currents, rat DRG neurons, whole-cell patch clamp, 3 min in presence of drug, read-out: IC50.

pEC50, pIC50: −log10 of the molar value. Like-named read-outs stand apart in the source and are kept apart here.

T1 sequence (Q8NER1 whole entry, species assumed): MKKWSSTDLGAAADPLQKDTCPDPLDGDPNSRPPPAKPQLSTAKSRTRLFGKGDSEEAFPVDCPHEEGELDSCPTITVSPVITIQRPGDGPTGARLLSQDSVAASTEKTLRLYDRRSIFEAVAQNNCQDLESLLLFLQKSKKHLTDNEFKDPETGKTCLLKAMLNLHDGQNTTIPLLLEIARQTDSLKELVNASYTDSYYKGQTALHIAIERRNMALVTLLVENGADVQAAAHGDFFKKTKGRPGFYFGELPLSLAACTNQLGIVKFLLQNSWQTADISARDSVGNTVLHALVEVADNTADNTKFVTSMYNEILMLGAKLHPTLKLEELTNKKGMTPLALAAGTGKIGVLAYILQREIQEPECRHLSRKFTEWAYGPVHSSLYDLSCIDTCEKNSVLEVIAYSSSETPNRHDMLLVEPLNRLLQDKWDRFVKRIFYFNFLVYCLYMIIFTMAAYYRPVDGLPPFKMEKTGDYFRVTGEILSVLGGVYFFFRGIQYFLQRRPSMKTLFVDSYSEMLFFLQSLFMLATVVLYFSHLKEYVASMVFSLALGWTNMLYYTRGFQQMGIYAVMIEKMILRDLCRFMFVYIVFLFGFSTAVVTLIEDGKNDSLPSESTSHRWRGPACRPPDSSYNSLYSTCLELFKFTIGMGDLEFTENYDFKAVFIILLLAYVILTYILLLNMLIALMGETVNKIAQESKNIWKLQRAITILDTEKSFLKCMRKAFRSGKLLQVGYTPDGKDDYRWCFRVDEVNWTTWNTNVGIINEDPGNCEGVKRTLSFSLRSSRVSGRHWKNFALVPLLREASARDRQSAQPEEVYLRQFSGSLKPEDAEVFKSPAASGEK

As usually defined, the pIC50 is the negative decadic logarithm of the IC50, by convention in mol/L. As a reminder, the pEC50 is −log10 of the EC50, conventionally taken in molar units. Read a low pEC50 as a high EC50. Take `CC(C)=CCCC1(C)CC1CO` (centres unmarked) [OBM 2979, (2-methyl-2-(4-methylpent-3-en-1-yl)cyclopropyl)methanol]: the pIC50 was 3.00 to 4.00 in assay [1] (setting [4]) and 3.15 in assay [1] (percentage sodium current versus concentration, FIG. 1, read-out: Calculated IC50). Further, the pEC50 in assay [2] is 4.00 to 6.00. Moreover, in assay [3], the IC50 entry is reported as “agonist”.
Regarding `COCC1CC1(C)CCC=C(C)C` (centres unmarked) [OBM 2989, 2-(methoxymethyl)-1-methyl-1-(4-methylpent-3-en-1-yl)cyclopropane], the pIC50 in assay [1] (setting [4]) was 2.00 to 2.30. Further, the pEC50 in assay [2] was below 3.35.
The matching figures for `CC(C)=CCCC1(C)CC1COCc1ccccc1` (centres unmarked) [OBM 2993]: above 2.00 and below 3.35.
The matching figures for `CC(C)=CCCC1(C)CC1COCc1ccccc1Br` (centres unmarked) [OBM 2994, 1-bromo-2-(((2-methyl-2-(4-methylpent-3-en-1-yl)cyclopropyl)methoxy)methyl)benzene]: above 2.00 and below 3.35.
The corresponding values for `CC(C)=CCCC1(C)CC1COCc1ccccc1Cl` (centres unmarked) [OBM 2995, 1-chloro-2-(((2-methyl-2-(4-methylpent-3-en-1-yl)cyclopropyl)methoxy)methyl)benzene] are above 2.00 and below 3.35.
Turning to `CC(C)=CCCC1(c2ccccc2)CC1CO` (centres unmarked) [OBM 2999, (2-(4-methylpent-3-en-1-yl)-2-phenylcyclopropyl) methanol], the pIC50 in assay [1] (setting [4]) is 2.30 to 3.00. In assay [2], the negative logarithm of the EC50 (pEC50) was 3.35 to 4.00.

Source of the values: patent publication US20140357725A1, “TERPENE ANALOGUES AND USES THEREOF FOR TREATING NEUROLOGICAL CONDITIONS” (NEUROQUEST INC., priority 2011, published 2014).
